# Laboratory results from the supplement of paper PMC7600603.
# How the values were obtained:
# [1] = tested on: DLD1 NRF2-WT; conditions: 72 h; CellTiter-Glo viability
# Summary of the method: (§1)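 Cells grown in DMEM with 10% FBS were isogenic DLD1 colorectal cancer lines, NRF2 wild-type or CRISPR gain-of-function. In 384-well plates they received library compounds at 5 concentrations over a 10,000-fold range for 72 h before CellTiter-Glo readout on a Pherastar FS reader, normalised to vehicle wells and 100-μM positive-control wells. Dose-response fits used a four-parameter logistic model, from which EC50 and drug sensitivity score, a normalised area under the curve, were obtained.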
# [2] = tested on: DLD1 NRF2-GOF; conditions: 72 h; CellTiter-Glo viability
# Summary of the method: as §1
# [3] = tested on: DLD1 NRF2-WT; assay: TC50 cytotoxicity; higher = less toxic; conditions: 72 h; CellTox Green cytotoxicity
# Summary of the method: (§2)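 TC50 and drug sensitivity score, a normalised area under the curve, were derived by logistic dose-response fits of cytotoxicity. The cells were an isogenic DLD1 colorectal cancer pair, NRF2 wild-type or CRISPR-edited, kept in DMEM with 10% FBS. Compounds were tested in 384-well plates at 5 concentrations across a 10,000-fold range for 72 h. Readings with CellTox Green on a Pherastar FS reader were normalised to vehicle wells and 100-μM positive-control wells.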
# [4] = tested on: DLD1 NRF2-GOF; assay: TC50 cytotoxicity; higher = less toxic; conditions: 72 h; CellTox Green cytotoxicity
# Summary of the method: as §2
# [5] = tested on: DLD1 NRF2-WT; assay: drug sensitivity score (DSS) viability (DSS score); higher = more sensitive; extreme values may be limits of the assay; conditions: 72 h; CellTiter-Glo viability
# Summary of the method: as §1
# [6] = tested on: DLD1 NRF2-GOF; assay: as above; conditions: 72 h; CellTiter-Glo viability
# Summary of the method: as §1
# [7] = tested on: DLD1 NRF2-WT; assay: drug sensitivity score (DSS) cytotoxicity (DSS score); higher = more toxic; extreme values may be limits of the assay; conditions: 72 h; CellTox Green cytotoxicity
# Summary of the method: as §2
# [8] = tested on: DLD1 NRF2-GOF; assay: as above; conditions: 72 h; CellTox Green cytotoxicity
# Summary of the method: as §2
Compound,EC50 viability [1],EC50 viability [2],TC50 cytotoxicity [3],TC50 cytotoxicity [4],drug sensitivity score [5],drug sensitivity score [6],drug sensitivity score [7],drug sensitivity score [8]
CN(C)CCOc1ccc(/C(=C(/CCCl)c2ccccc2)c2ccccc2)cc1 [Toremifene],4.21 µM,2.15 µM,> 10 µM,> 10 µM,2.2,4.8,0,0
Clc1ccc(C(c2ccccc2Cl)C(Cl)Cl)cc1 (configuration not stated) [Mitotane],> 10 µM,> 10 µM,> 10 µM,> 10 µM,0,1.8,0,0
CCN(CC)CCCC(C)Nc1ccnc2cc(Cl)ccc12 (configuration not stated) [Chloroquine],6.41 µM,9.78 µM,26.1 µM,25.8 µM,13.8,11.8,6,5
Cn1cc(C2=C(c3cn(C4CCN(Cc5ccccn5)CC4)c4ccccc34)C(=O)NC2=O)c2ccccc21 [Enzastaurin],> 10 µM,> 10 µM,> 10 µM,> 10 µM,0,0,0,0
C[C@]1(c2nc3c(C(N)=O)cccc3[nH]2)CCCN1 [Veliparib],1.57 µM,> 10 µM,> 10 µM,> 10 µM,2.9,0,0,0
CN1CCN(CCOc2cc(OC3CCOCC3)c3c(Nc4c(Cl)ccc5c4OCO5)ncnc3c2)CC1 [Saracatinib],2.48 µM,> 10 µM,> 10 µM,> 10 µM,2.4,0.3,0.7,0.1
CC(=O)O[C@]1(C(C)=O)CC[C@H]2[C@@H]3C=C(C)C4=CC(=O)CC[C@]4(C)[C@H]3CC[C@@]21C [Megestrol acetate],> 10 µM,> 10 µM,> 10 µM,> 10 µM,0,2.4,0,0
CC[C@@H]1[C@H](F)C(=O)N[C@@H]1COc1nccc2cc(C(N)=O)c(OC)cc12,> 10 µM,> 10 µM,> 10 µM,> 10 µM,0.5,2.4,0,0
NC[C@@](O)(c1ccc(Cl)cc1)c1ccc(-c2cn[nH]c2)cc1,0.001 µM,0.435 µM,> 10 µM,> 10 µM,10.8,10.6,0,0
CC(C)C[C@H](NC(=O)[C@H](CCc1ccccc1)NC(=O)CN1CCOCC1)C(=O)N[C@@H](Cc1ccccc1)C(=O)N[C@@H](CC(C)C)C(=O)[C@@]1(C)CO1 [Carfilzomib],0.0065 µM,0.0075 µM,0.0061 µM,0.0143 µM,26.6,25.8,26.9,22.3
CC1=C(/C=C/C(C)=C/C=C/C(C)=C/C(=O)O)C(C)(C)CCC1 [Tretinoin],0.001 µM,0.0965 µM,> 10 µM,> 10 µM,17.7,12.1,0,0
Sc1ncnc2nc[nH]c12 [Mercaptopurine],4.29 µM,1.72 µM,> 10 µM,> 10 µM,2.1,6.5,0,0
NC(=O)NO [Hydroxyurea],364 µM,157 µM,> 1000 µM,> 1000 µM,1.7,5.8,0,0
Nc1nc(Cl)nc2c1ncn2[C@H]1C[C@H](O)[C@@H](CO)O1 [Cladribine],0.0256 µM,0.145 µM,> 1 µM,> 1 µM,10.4,5.5,0,0
COc1cc2c(Oc3ccc(NC(=O)C4(C(=O)Nc5ccc(F)cc5)CC4)cc3F)ccnc2cc1OCCCN1CCOCC1 [Foretinib],0.414 µM,0.361 µM,0.28 µM,0.267 µM,2.1,3.3,3.2,6.3
C[C@H]1C=C2C(=O)O[C@H]3CC[C@@H](C1)[C@@]23O [Galiellalactone],> 25 µM,0.414 µM,> 25 µM,> 25 µM,2.8,5.1,0,0
CN[C@@H](C)C(=O)N[C@H]1CN(C(=O)CC(C)C)CC[C@H]2CC[C@@H](C(=O)NC(c3ccccc3)c3ccccc3)N2C1=O [AT-406],> 10 µM,0.885 µM,> 10 µM,> 10 µM,0,2.6,0,0
Nc1nc(Cl)nc2c1ncn2[C@@H]1O[C@H](CO)[C@@H](O)[C@@H]1F [Clofarabine],0.166 µM,0.171 µM,> 10 µM,> 10 µM,11.8,13.2,0,0
CN1CCc2c(c3ccccc3n2Cc2ccc(C(=O)NO)cc2)C1 [Tubastatin A],0.295 µM,1.56 µM,> 10 µM,> 10 µM,4,4.1,0,0
O=C(NOCCO)c1ccc2cncn2c1Nc1ccc(I)cc1F [GDC-0623],0.429 µM,> 2.5 µM,> 2.5 µM,> 2.5 µM,3.3,0,0,0
CC[C@@H]1C(=O)OC[C@@H]1Cc1cncn1C [Pilocarpine],> 40 µM,> 40 µM,> 40 µM,> 40 µM,0,0.1,0,0

# Second part, led by results:
EC50 viability [1],EC50 viability [2],Compound,TC50 cytotoxicity [3],TC50 cytotoxicity [4],drug sensitivity score [5],drug sensitivity score [6],drug sensitivity score [7],drug sensitivity score [8]
1.03 µM,1.46 µM,CC1(COc2ccc3c(c2)ncn3-c2ccc3cccc(N4CCC(N)CC4)c3n2)COC1 [Crenolanib],2.65 µM,2.89 µM,10.9,9.3,4.3,6.1
1.02 µM,1.44 µM,Cc1ncc(-c2ccnc(Nc3ccc(S(C)(=O)=O)cc3)n2)n1C(C)C [AZD-5438],> 10 µM,> 10 µM,10.8,8.7,0.5,1.9
> 10 µM,0.983 µM,Cc1cn(-c2cc(NC(=O)c3ccc(C)c(Nc4nccc(-c5cccnc5)n4)c3)cc(C(F)(F)F)c2)cn1 [Nilotinib],> 10 µM,> 10 µM,2.5,4,0,0
1.93 µM,3.61 µM,CC(C)(C)C[C@@H]1N[C@@H](C(=O)N[C@H]2CC[C@H](O)CC2)[C@H](c2cccc(Cl)c2F)[C@]12C(=O)Nc1cc(Cl)ccc12,> 10 µM,> 10 µM,4.4,1.5,0,0
> 2.5 µM,> 2.5 µM,CC(O)c1cc(C(=O)N[C@@H](C)Cn2ccc(-c3ccc(C#N)c(Cl)c3)n2)n[nH]1 (some centres not stated) [ODM-201],> 2.5 µM,> 2.5 µM,0.2,0.9,0,0
1.97 µM,2.52 µM,C=CC(=O)Nc1cc2c(Nc3ccc(F)c(Cl)c3)ncnc2cc1OCCCN1CCOCC1 [Canertinib],2.39 µM,3.21 µM,8.1,6.8,7.1,5.5
> 10 µM,> 10 µM,Cc1ccc(-n2nc(C(C)(C)C)cc2NC(=O)Nc2ccc(OCCN3CCOCC3)c3ccccc23)cc1 [Doramapimod],> 10 µM,> 10 µM,0,0,0,0
0.0266 µM,0.0228 µM,CC(C)c1cc(-c2n[nH]c(=O)n2-c2ccc3c(ccn3C)c2)c(O)cc1O [Ganetespib],> 1 µM,> 1 µM,17.9,18.4,0,0
> 2.5 µM,> 2.5 µM,COc1cc2nccc(Oc3ccc(NC(=O)NC4CC4)c(Cl)c3)c2cc1C(N)=O [Lenvatinib],> 2.5 µM,> 2.5 µM,0.1,0,0,0
1.8 µM,0.163 µM,Cc1ccc(NC(=O)c2ccc(CN3CCN(C)CC3)cc2)cc1Nc1nc(-c2cccnc2)cs1 [Masitinib],> 10 µM,> 10 µM,6.7,14.3,0,0
1.71 µM,3.27 µM,CN1CCN(C2CCC(n3cc(-c4ccc(Oc5ccccc5)cc4)c4c(N)ncnc43)CC2)CC1 (configuration not stated),3.23 µM,3.09 µM,8.8,5.4,4.5,5.3
0.0117 µM,> 1 µM,Cc1nc(-c2cn3c(n2)-c2ccc(-c4cnn(C(C)(C)C(N)=O)c4)cc2OCC3)n(C(C)C)n1 [Taselisib],> 1 µM,> 1 µM,5.5,0.9,0.4,0
> 10 µM,> 10 µM,CCCS(=O)(=O)Nc1ccc(F)c(C(=O)c2c[nH]c3ncc(-c4ccc(Cl)cc4)cc23)c1F [Vemurafenib],> 10 µM,> 10 µM,0.2,0,0,0
2.4 µM,1.22 µM,COc1cc(NS(C)(=O)=O)ccc1Nc1c2ccccc2nc2ccccc12 [Amsacrine],> 10 µM,> 10 µM,4.4,6.2,0.7,0
> 10 µM,> 10 µM,O=C(NC[C@H](O)CN1CCc2ccccc2C1)c1cc(NC2COC2)ncn1,> 10 µM,> 10 µM,3,2.4,0,0
0.0442 µM,0.0121 µM,COc1cc2c(Oc3ccc4[nH]c(C)cc4c3F)ncnc2cc1OCCCN1CCCC1 [Cediranib],> 1 µM,> 1 µM,7,10.2,0,0
> 10 µM,> 10 µM,Cc1ccc(C(=O)Nc2cccc(C(F)(F)F)c2)cc1Nc1nc(-c2cccnc2)nc2c1cnn2C [NVP-BHG712],> 10 µM,> 10 µM,2.2,0.9,0,0
0.108 µM,0.0533 µM,CCS(=O)(=O)c1cccc(-c2cc(C(=O)NC3CCN(C)CC3)c(C)c3[nH]c4ncc(C)cc4c23)c1 [TAK-901],> 1 µM,0.0837 µM,7.8,11.2,2.2,5.6
0.725 µM,1.34 µM,CC1(C)OCCn2c1nc1c(N3CCOCC3)nc(-c3cnc(N)nc3)nc12 [GDC-0084],3.65 µM,> 10 µM,10.9,8.4,1.1,0.3
0.0964 µM,0.247 µM,COc1cc2ncnc(Nc3ccc(F)c(Cl)c3)c2cc1NC(=O)/C=C/CN1CCCCC1 [Dacomitinib],> 1 µM,> 1 µM,5.9,2.4,0,0
> 1 µM,> 1 µM,CN1CCC(COc2cnc(-c3cccc(Cn4nc(-c5cccc(C#N)c5)ccc4=O)c3)nc2)CC1 [Tepotinib],> 1 µM,> 1 µM,0,0,0,0
> 10 µM,> 10 µM,Cc1cn(-c2cc(NC(=O)c3ccc(C)c(Nc4nccc(-c5cnccn5)n4)c3)cc(C(F)(F)F)c2)cn1 [Radotinib],> 10 µM,> 10 µM,0,0.4,0,0.3
> 1 µM,> 1 µM,C[C@H]1Oc2cc(cnc2N)-c2c(nn(C)c2C#N)CN(C)C(=O)c2ccc(F)cc21,> 1 µM,> 1 µM,0,1.6,0,0
